The values below come from a melting point compilation (Tetko et al.).

A word on the melting point: it is the temperature, or range, at which the solid turns liquid. As to `Nc1nc2cc3c(cc2s1)OCCO3`, the melting point was in the range of 203 to 205 °C.
For `CC(C)(C)Cc1nc2cc(N)ccc2o1` the value was 83 to 85 °C.
`Clc1ncnc2c1nnn2-c1ccccc1` showed a melting point of 115 to 117 °C.
In the case of `Oc1cccc(-c2nnc[nH]2)c1`, the melting point lay in the range of 192 to 194 °C.
For `O=c1cc(CCl)occ1O` the value was 166 to 168 °C.
Take `NC(=O)N1CC(O)CC1C(=O)O` (configuration not stated): the melting point is 166 to 168 °C.
`O=C(O)CCn1c(=O)[nH]c(=O)c2ccccc21`: the melting point was in the range of 231 to 233 °C.
In the case of `CCOC(=O)C(NC(=O)c1ccc(Cl)c(Cl)c1)C(C)O` (configuration not stated), the melting point fell in the range of 68 to 70 °C.
For `O=C(OCCl)OC1CCCCC1`, the melting point lay in the range of 36 to 38 °C.
The molecule `CCCNc1ccc(S(N)(=O)=O)cc1N` returned a melting point of 104 to 106 °C.
`Nc1ccc2oc(-c3cc(F)ccc3Br)nc2c1`: the melting point was in the range of 159 to 161 °C.
For `CC(C)(C)OC(=O)Nc1ccccc1N` the value was 105 to 107 °C.
Under `O=S(=O)(Cl)c1cc(Br)cnc1Cl` stands 61 to 63 °C.
Regarding `O=C(c1c(Cl)cccc1Cl)N1CCNCC1`, the melting point was in the range of 149 to 151 °C.
Molecule `CCn1c(S)nnc1-c1ccc(OC)cc1` returned a melting point of 178 to 180 °C.
Regarding `COc1cc(/C=C/C(=O)O)cc(Cl)c1OC(C)C`, the melting point was in the range of 113 to 115 °C.
Regarding `Nc1ccccc1C(=O)NCc1ccc2c(c1)OCO2`, the melting point was 115 to 124 °C.
On to `NCCCc1nc2ccccc2[nH]1`, for which the melting point was 210 to 212 °C.
For `Cc1nc(-c2ccncc2)[nH]c(=O)c1CC(=O)O`, the melting point lay within 252 to 254 °C.
`CC1(c2cccc(Cl)c2)NC(=O)NC1=O` (configuration not stated) came in with a melting point of 200 to 202 °C.
Under `Cc1[nH]c(=O)[nH]c(=O)c1CO` stands 326 to 328 °C; under `CC(C)C(Br)C(=O)N1CCC(C(N)=O)CC1` (configuration not stated), 172 to 174 °C; under `CN(C)Cc1cccc(NC(=O)c2nonc2N)c1`, 142 to 144 °C.
Molecule `COC(=O)c1ccc2ccn(C)c2c1` showed a melting point of 91 to 93 °C.
For `Cc1ccccc1-n1cnnc1S` the value was 144 to 146 °C; for `O=C(O)c1cnn(-c2ccc([N+](=O)[O-])cc2)c1`, 258 to 260 °C; for `O=C1C=C(Br)C(=O)N1`, 151 to 153 °C.
Take `O=C1CCN(c2ccc([N+](=O)[O-])cc2)CC1`: the melting point fell in the range of 162 to 164 °C.
For `CC(=O)c1c[nH]c2cc(Cl)ccc12` the value was 229 to 231 °C; for `CC(=O)c1ccc(S(=O)(=O)N2CCOCC2)cc1`, 161 to 163 °C.
Under `Cn1cc(C=O)c(-c2ccncc2)n1` stands 131 to 133 °C; under `O=C1CCC(=O)N1c1ncc(Br)s1`, 150 to 152 °C; under `C#CCNC(C)=O`, 79 to 81 °C.
Under `CNCc1ccc(C(=O)NC)o1` stands 65 to 67 °C; under `O=C(O)c1ccc(Cl)c(I)c1`, 212 to 214 °C.
Consider `CCCCN(C(=O)CCl)c1c(N)n(CCC)c(=O)[nH]c1=O`, for which the melting point lay within 229 to 231 °C.
For `O=C(O)C(c1ccccc1)N1C(=O)CCC1=O` (configuration not stated) the value was 194 to 196 °C; for `O=C(O)C1CCCN1S(=O)(=O)c1cccs1` (configuration not stated), 99 to 101 °C.
Take `O=C(O)c1nnn(-c2cccc(Br)c2)c1C(F)(F)F`: the melting point lay within 154 to 156 °C.
Take `O=C1NC(=O)C2(CCCN(Cc3ccccc3)C2)N1` (configuration not stated): the melting point lay within 209 to 211 °C.
On to `Cn1c(=O)c2[nH]c(Br)nc2n(C)c1=O`, for which the melting point was 299 to 301 °C.
As for `O=Cc1c(Cl)cccc1OCc1ccccc1Cl`, the melting point lay within 92 to 94 °C.
Under `Clc1ccc2ccc(Cl)c(Cl)c2n1` stands 123 to 125 °C.
Under `CCNC(=O)COc1cccc(C(C)N)c1` (configuration not stated) stands 79 to 81 °C; under `CC(C)c1ccc(-c2nc(CSc3nnc(N)[nH]3)cs2)cc1`, 156 to 158 °C.
Consider `CCN(CC)S(=O)(=O)c1ccc(N)c(N)c1`, for which the melting point lay in the range of 124 to 126 °C.
As for `Cc1cc(C)c2c(C)c(C(=O)O)sc2n1`, the melting point is 278 to 280 °C.
Under `O=S(=O)(c1ccc(F)cc1)N1CCCNCC1` stands 180 to 182 °C; under `O=C(O)c1ccc(OCc2ccccn2)cc1`, 209 to 211 °C; under `NS(=O)(=O)c1cc(Cl)c(Br)s1`, 147 to 149 °C.
Regarding `Cc1ccc(C(=O)O)cc1NC(=O)c1ccco1`, the melting point lay in the range of 230 to 232 °C.
Take `FC(F)(F)Cn1c(S)nnc1-c1ccncc1`: the melting point lay in the range of 243 to 245 °C.
For `O=C1Nc2cc(I)ccc2C1=O` the value was 264 to 266 °C.
`CCOc1ccc(Nc2nnc(S)s2)cc1` came in with a melting point of 170 to 172 °C.
For `Cc1csc(SCc2c(C(=O)O)oc3ccccc23)n1` the value was 177 to 179 °C; for `Cc1cc(S(=O)(=O)Cl)c(C)cc1Br`, 54 to 56 °C.
For `Cc1ncsc1-c1nc(CN)no1` the value was 159 to 161 °C; for `CS(=O)(=O)Nc1ccc(O)c(C(=O)O)c1`, 228 to 230 °C; for `NC(c1ccncc1)c1ccc(F)cc1` (configuration not stated), 63 to 65 °C.
`O=CNc1cccc(O)c1` registered a melting point of 115 to 117 °C.
`Nc1c(C(=O)c2cccs2)oc2ccccc12` showed a melting point of 173 to 175 °C.
The molecule `CC(=O)c1c(Cl)nc2sccn12` registered a melting point of 159 to 161 °C.
Under `CN(CC(=O)O)c1ncnc2nc[nH]c12` stands 237 to 239 °C; under `Cc1cccc(C(=O)Nc2ccccc2C(=O)O)c1`, 182 to 186 °C.
For `NC(=NO)c1cccc([N+](=O)[O-])c1` the value was 182 to 184 °C; for `O=C(O)c1c(-n2cccc2)sc2c1CCSC2`, 169 to 171 °C.
For `NS(=O)(=O)C1CCNC1` (configuration not stated) the value was 115 to 117 °C; for `CC(=O)c1ccc(N2CCOC2=O)cc1`, 149 to 151 °C.
Regarding `NC(=O)CCc1nnc(S)n1Cc1ccco1`, the melting point is 204 to 206 °C.
Under `O=c1[nH][nH]c2ncccc12` stands 260 to 262 °C.
Under `Cc1ccc2oc(C(=O)O)cc2c1` stands 243 to 245 °C; under `O=C(O)c1ccc(N2CCOCC2)c(F)c1`, 220 to 222 °C; under `NC(=S)CC(N)=S`, 202 to 204 °C.
For `CCCc1cc(Cl)n2ncnc2n1` the value was 67 to 69 °C; for `O=C(O)c1cnc(-c2ccc3c(c2)CCO3)s1`, 215 to 217 °C; for `O=C(O)/C=C/c1ccc(OCc2cn3ccccc3n2)cc1`, 190 to 192 °C.
Turning to `Cc1ccc2[nH]nc(C(=O)O)c2c1`, the melting point was 273 to 275 °C.
For `Cc1cscc1C(=O)O` the value was 135 to 137 °C; for `COc1cc(C=O)ccc1OC(=O)c1cccs1`, 64 to 69 °C; for `CCCCNc1c(N)n(CCC)c(=O)[nH]c1=O`, 201 to 203 °C.
In turn, `O=C(O)CCNC(=O)c1ccc(Br)cc1` gave a melting point of 142 to 144 °C.
`CC(=O)NCc1ccc(C(=O)CCl)o1`: the melting point fell in the range of 125 to 127 °C.
`N#Cc1cccc(C2(C(=O)O)CC2)c1` yielded a melting point of 182 to 184 °C.
Under `Sc1nc(-c2ccccc2)ns1` stands 161 to 163 °C; under `O=C1NC(=O)C2(CCc3cc(Cl)ccc32)N1` (configuration not stated), 252 to 254 °C.
Molecule `Cc1ccoc1-c1nnc(CCl)o1` yielded a melting point of 49 to 51 °C.
For `COc1ccc(C(N)=O)cc1F` the value was 169 to 171 °C; for `CC(=O)c1ccc(-n2cnnn2)cc1`, 174 to 176 °C.
Under `CCN(C)S(=O)(=O)c1c(C)n[nH]c1C` stands 61 to 63 °C.
As to `Cc1nccc(N)c1Cl`, the melting point fell in the range of 110 to 112 °C.
`Cn1[nH]c(=O)nc1S` gave a melting point of 216 to 220 °C.
For `Sc1nnc(NCc2ccccc2)s1` the value was 146 to 148 °C.
For `NC(=S)C1CN(Cc2ccccc2)CCO1` (configuration not stated) the value was 90 to 92 °C; for `Cc1ccc(S(=O)(=O)C2(C(=O)O)CCC2)cc1`, 105 to 107 °C.
Under `Cc1ccc(CCCCC(=O)O)cc1` stands 75 to 77 °C; under `Cc1cc(C(=O)O)sc1-c1cccc(Cl)c1`, 178 to 180 °C; under `N#Cc1ccc(S(=O)(=O)Cl)c(C(F)(F)F)c1`, 70 to 72 °C.
With `CC(C)c1ccc2cc(C(=O)O)[nH]c2c1`, the melting point is 132 to 134 °C.
For `O=c1[nH]cnc2cc(N3CCOCC3)c([N+](=O)[O-])cc12` the value was 309 to 311 °C; for `Brc1cnn(-c2cccnc2)c1`, 126 to 128 °C; for `O=C(CCl)NC(=O)NC12CC3CC(CC(C3)C1)C2`, 169 to 171 °C.
Under `Nc1ccc(-n2cc[nH]c2=O)cc1` stands 217 to 219 °C; under `CCOC(=O)c1sc2nc(CN3CCOCC3)nc(Cl)c2c1C`, 110 to 112 °C; under `Cc1ccc(-c2ccc(C(=O)O)s2)o1`, 197 to 199 °C.
On to `Cc1ccc(S(=O)(=O)Oc2cccnc2[N+](=O)[O-])cc1`, for which the melting point is 83 to 85 °C.
Consider `CCNc1ccc(C#N)c(Cl)c1`, for which the melting point was in the range of 69 to 71 °C.
`O=[N+]([O-])c1ccc(Cl)c(S(=O)(=O)N2CCOCC2)c1`: the melting point was 149 to 151 °C.
For `CC(C)CC(N)C(=O)Nc1nccs1` (configuration not stated) the value was 99 to 101 °C; for `O=Cc1sc(=O)[nH]c1Cl`, 199 to 201 °C; for `C=CCOc1ccc(C(F)(F)F)cc1C(=O)O`, 58 to 60 °C.
For `Cc1cc(N)n(-c2ncccn2)n1` the value was 203 to 205 °C; for `O=C(O)c1nnc2c(C(F)(F)F)cccn12`, 139 to 141 °C.
Under `NNc1nc(C(F)(F)F)cs1` stands 122 to 124 °C; under `NS(=O)(=O)c1cc(C(=O)O)ccc1Br`, 275 to 277 °C.
On to `CC(C)c1ncncc1C(=O)O`, for which the melting point is 134 to 136 °C.
For `N#Cc1sc(-c2cccc(Cl)c2)cc1N` the value was 190 to 192 °C.
For `Cc1ccc(/C=C/C(=O)O)s1` the value was 160 to 162 °C; for `CCOC(=O)/C(C#N)=C/Nc1ccc(I)cc1`, 155 to 157 °C.
Regarding `CCOc1ccc(S(=O)(=O)N(C)C)cc1N`, the melting point was 124 to 126 °C.
The molecule `O=C(c1ccc(F)cc1)c1ccc(Cl)cc1` showed a melting point of 115 to 117 °C.
Take `Cc1nnc(-c2ccccc2F)o1`: the melting point is 37 to 39 °C.
Under `CSc1nn(C)c(N)c1C#N` stands 123 to 125 °C.
